In US6025358A, “Double prodrugs of potent GP IIb/IIIa antagonists” (G. D. Searle & Co., priority 1999, dated 2000):
Counter-ions that a name gives are not always drawn.

System: platelet aggregation
Test: Ex vivo screening of oral GP IIb/IIIa inhibitors: inhibition of collagen-induced platelet aggregation in PRP after oral dosing in beagles
Conditions: Canis lupus familiaris, Platelet, beagle dogs, 5 mpk, n = 2, 32 hours post-dosing, collagen agonist, read-out: Percent inhibition of platelet aggregation at 32 hour post-dosing
Description: Beagles (8-13 kg, various sources) of either sex are dosed orally with compound in a gelatin capsule. Blood samples are drawn from the cephalic vein using a 23 ga infusion butterfly. Samples for platelet aggregation and drug concentration are taken prior to dosing and 0.5, 1, 2, 3, 5, 7 and 10 hours after dosing and periodically on subsequent days until inhibition of platelet aggregation is less than 30%. Animals are fasted, with ad lib access to water, overnight prior to dosing. For measurement of plasma concentration blood is drawn into a 3 ml tube containing 45 USP units of Na Heparin. Blood is centrifuged at 1700×g for 10 minutes, plasma is aspirated and frozen at -20° C. until analyzed by HPLC. For measurement of platelet aggregation, blood is drawn into 2 2.0 ml tubes containing 0.2 ml of 3.8% Na Citrate. Blood is centrifuged at 250×g for 6 minutes and the platelet rich plasma (PRP) is aspirated. The remaining blood is centrifuged at 1700×g for 10 minutes and platelet poor plasma (PPP) is aspirated. Platelet aggregation is performed in a Bio-Data PAP-4 aggregometer (Bio-Data Corp., Havertown, Pa.) using collagen (100 μg/ml final concentration; Helena Laboratories, Beaumont, Tex.) as the agonist. Briefly, baseline (100% aggregation) is set using PPP; PRP is incubated at 37° C. for one minute without stirring and one minute with stirring, agonist is added and aggregation is allowed to develop for 4 minutes. Percent aggregation post-dosing is compared to percent aggregation pre-dosing to determine percent inhibition.
Percent inhibition of platelet aggregation at 32 hour post-dosing in
beagle dogs (5 mpk, n = 2)

SMILES	inhibition in vivo at 5 mg/kg [%]
COC(=O)CCNC(=O)N[C@H]1CCN(c2ccc(C(N)=NOC(N)=O)cc2)C1=O [Example 5, N-[[[(3S)-1-[4-[[[(aminocarbonyl)oxy]amino]iminomethyl]-phenyl]-2-oxo-3-pyrrolidinyl]amino]carbonyl]-β-alanine methyl ester]	89
CC(C)(C)COC(=O)CCNC(=O)N[C@H]1CCN(c2ccc(C(N)=NO)cc2)C1=O [1(f), N-[[[(3S)-1-[4-[(hydroxyamino)iminomethyl]phenyl]-2-oxo-3-pyrrolidinyl]amino]carbonyl]-β-alanine 2,2-dimethylpropyl ester]	87
CCOC(=O)CCNC(=O)N[C@H]1CCN(c2ccc(C(=N)NOC(=O)N(C)CCN(C)C)cc2)C1=O [3(e), N-[[[(3S)-1-[4-(1-imino-5,8-dimethyl-4-oxo-3-oxa-2,5,8-triazanon-1-yl)phenyl]-2-oxo-3-pyrrolidinyl]amino]carbonyl]-β-alanine ethyl ester dihydrochloride]	54
